Measured values reported in patent publication US20200131144A1, “AMINE OR (THIO)AMIDE CONTAINING LXR MODULATORS” (Phenex-FXR GmbH, priority 2017, published 2020).

How the values were obtained:
[1] = biological target: T1, LXRβ full length (FL) (Homo sapiens, UniProt P55055, INS174Q); assay: LXR Gal4 reporter transient transfection assay, mammalian two-hybrid, FL-M2H Gal4β; format: cell-based; conditions: HEK293 cells; inverse agonist unless *
T1 construct: the full length (FL) proteins of LXRα (amino acids 1-447); NP005684; NP009052; expressed in transfected cells; host or cells: HEK293
T1 sequence (P55055 with tags, fused parts or gaps INS174Q): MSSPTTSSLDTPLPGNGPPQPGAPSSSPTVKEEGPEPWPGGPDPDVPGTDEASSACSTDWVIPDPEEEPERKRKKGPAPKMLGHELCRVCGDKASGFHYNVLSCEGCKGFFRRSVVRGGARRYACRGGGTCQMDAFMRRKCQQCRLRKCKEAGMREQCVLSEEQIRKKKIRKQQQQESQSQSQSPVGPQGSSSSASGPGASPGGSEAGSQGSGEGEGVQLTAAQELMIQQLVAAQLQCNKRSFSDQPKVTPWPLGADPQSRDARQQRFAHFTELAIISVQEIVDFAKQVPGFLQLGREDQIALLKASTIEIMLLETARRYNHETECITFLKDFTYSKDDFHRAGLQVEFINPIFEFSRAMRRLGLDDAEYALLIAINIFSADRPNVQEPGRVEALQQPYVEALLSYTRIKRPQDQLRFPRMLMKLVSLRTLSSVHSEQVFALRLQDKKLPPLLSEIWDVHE
Procedure, shortened: (§1)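 Mammalian two-hybrid read-out: interaction of LXRα or LXRβ (full length or ligand-binding domain, NFkB activation-domain fusions) with GAL4-fused SRC1 or NCoR domains drives GAL4-responsive firefly luciferase in HEK293 cells, normalised by Renilla cotransfection. Compounds given 4 h after transfection, ≤0.2% vehicle, cells lysed after 16 h.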

[2] = biological target: T2, LXRα full length (FL) (Homo sapiens, UniProt Q13133); assay: LXR Gal4 reporter transient transfection assay, mammalian two-hybrid, FL-M2H Gal4α; format: cell-based; conditions: HEK293 cells; inverse agonist unless *
T2 construct: the full length (FL) proteins of LXRα (amino acids 1-447); NP005684; expressed in transfected cells; host or cells: HEK293
T2 sequence (Q13133 1-447): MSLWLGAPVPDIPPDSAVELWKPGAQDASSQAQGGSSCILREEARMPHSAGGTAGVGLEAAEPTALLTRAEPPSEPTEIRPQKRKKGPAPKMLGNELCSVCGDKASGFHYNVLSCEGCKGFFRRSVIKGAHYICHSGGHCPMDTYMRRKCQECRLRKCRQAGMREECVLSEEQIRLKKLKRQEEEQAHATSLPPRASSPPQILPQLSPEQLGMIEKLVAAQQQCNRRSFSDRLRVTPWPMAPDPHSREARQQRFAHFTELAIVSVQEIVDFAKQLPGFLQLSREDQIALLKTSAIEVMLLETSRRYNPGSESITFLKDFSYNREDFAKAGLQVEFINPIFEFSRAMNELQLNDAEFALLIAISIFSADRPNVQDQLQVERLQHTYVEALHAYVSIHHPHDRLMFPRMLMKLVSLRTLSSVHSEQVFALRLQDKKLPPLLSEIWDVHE
Procedure, shortened: as §1

[3] = biological target: T3, GST-LXRβ ligand-binding domain (Homo sapiens, UniProt P55055, INS174Q); assay: TR-FRETβ activity assay (NCoA3 coactivator peptide recruitment); format: biochemical; conditions: 1 μM 24(S)-25-epoxycholesterol as prestimulating agonist; inverse agonist unless *
T3 construct: amino acids 156-461; NP009052; made in house; host or cells: E. coli
T3 sequence (P55055 with tags, fused parts or gaps INS174Q limits assumed): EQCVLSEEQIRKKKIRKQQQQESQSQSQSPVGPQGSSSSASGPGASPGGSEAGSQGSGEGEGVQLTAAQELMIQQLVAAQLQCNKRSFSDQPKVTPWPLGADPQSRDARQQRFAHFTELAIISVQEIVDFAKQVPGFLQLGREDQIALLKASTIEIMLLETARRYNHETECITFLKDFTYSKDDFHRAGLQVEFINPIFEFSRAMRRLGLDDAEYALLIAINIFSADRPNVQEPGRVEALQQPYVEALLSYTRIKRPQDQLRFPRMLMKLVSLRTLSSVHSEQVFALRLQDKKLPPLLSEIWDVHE
Procedure, shortened: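 Coactivator recruitment read as TR-FRET (ex 340, em 615 and 665 nm) after 1 h equilibration at 4° C, in triplicate. Mix held 76 nM GST-tagged LXRβ LBD (aa 156-461, E. coli), 400 nM biotin-NCoA3 peptide, Tb-cryptate anti-GST, streptavidin-XL665, 240 mM KCl buffer.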

SMILES	EC50 [1]	EC50 [2]	EC50 [3]	FRETβ [3]
CC1=C(C(=O)N(Cc2ccc(-c3cccc(C(C)(C)C(=O)O)c3)cc2)Cc2ccc(C(F)(F)F)o2)c2ccccc2CC1 [27/95]	< 100 nM	< 100 nM	< 100 nM	–
CCNC(=O)c1ccc(CN(Cc2ncc(-c3cccc(C(C)C(=O)O)c3)cc2Cl)C(=O)c2c(C)c(C)nc3ccccc23)o1 (stereo not drawn) [27/99]	1000 to 10000 nM	1000 to 10000 nM	1000 to 10000 nM	–
Cc1cnc2ccccc2c1C(=O)N(Cc1ccc(-c2cccc(C(C)(C)C(=O)O)c2)cc1)Cc1ccc(C(F)(F)F)o1 [27/103]	< 100 nM	< 100 nM	< 100 nM	–
COc1cc(-c2cccc(C(C)(C)C(=O)O)c2)ccc1CN(Cc1ccc(C(F)(F)F)o1)C(=O)c1c(C)c(C)nc2ccccc12 [27/104]	< 100 nM	< 100 nM	100 to 1000 nM	–
Cc1nc2ccccc2c(C(=O)N(Cc2ccc(C(F)(F)F)o2)Cc2ccc(-c3cccc(C(C)(C)C(=O)O)c3)cc2C#N)c1C [27/105]	< 100 nM	< 100 nM	100 to 1000 nM	–
COc1cc(-c2cccc(C(C)(C)C(=O)O)c2)ccc1CN(Cc1ccc(C(F)(F)F)o1)C(=O)c1c(C)c(C)nc2cccnc12 [27/108]	< 100 nM	< 100 nM	100 to 1000 nM	–
Cc1nc2cccnc2c(C(=O)N(Cc2ccc(C(F)(F)F)o2)Cc2ccc(-c3cccc(C(C)(C)C(=O)O)c3)cc2C#N)c1C [27/109]	100 to 1000 nM	100 to 1000 nM	1000 to 10000 nM	–
Cc1nc2cccnc2c(C(=O)N(Cc2ccc(-c3cccc(C4(C(=O)O)CC4)c3)cc2)Cc2ccc(C(F)(F)F)o2)c1C [27/112]	< 100 nM	< 100 nM	100 to 1000 nM	–
Cc1nc2cccnc2c(C(=O)N(Cc2ccc(-c3cc(F)cc(C4(C(=O)O)CC4)c3)cc2)Cc2ccc(C(F)(F)F)o2)c1C [27/113]	< 100 nM	< 100 nM	100 to 1000 nM	–
Cc1nc2cccnc2c(C(=O)N(Cc2ccc(C(F)(F)F)o2)Cc2ccc(-c3cccc(C(C)(C)C(=O)O)c3)cc2F)c1C [27/114]	< 100 nM	< 100 nM	100 to 1000 nM	–
Cc1cnc2cccnc2c1C(=O)N(Cc1ccc(C(F)(F)F)o1)Cc1ccc(-c2cccc(C(C)(C)C(=O)O)c2)cc1Cl [27/115]	< 100 nM	< 100 nM	100 to 1000 nM	–
Cc1nc2cccnn2c1C(=O)N(Cc1ccc(-c2cccc(C(C)(C)C(=O)O)c2)cc1)Cc1ccc(C(F)(F)F)o1 [27/116]	100 to 1000 nM	100 to 1000 nM	1000 to 10000 nM	–
Cc1nc2ncccn2c1C(=O)N(Cc1ccc(-c2cccc(C(C)(C)C(=O)O)c2)cc1)Cc1ccc(C(F)(F)F)o1 [27/117]	1000 to 10000 nM	1000 to 10000 nM	1000 to 10000 nM	–
Cc1nc2ccccn2c1C(=O)N(Cc1ccc(-c2cccc(C(C)(C)C(=O)O)c2)cc1)Cc1ccc(C(F)(F)F)o1 [27/118]	100 to 1000 nM	100 to 1000 nM	100 to 1000 nM	–
Cc1nc2ccccc2c(C(=O)N(Cc2ccc(-c3cccc(C(C)(C)C(=O)O)c3)cc2)Cc2ccc(C(F)(F)F)o2)c1O [27/120]	100 to 1000 nM	100 to 1000 nM	1000 to 10000 nM	–
Cc1ccc2ncnn2c1C(=O)N(Cc1ccc(-c2cccc(C(C)(C)C(=O)O)c2)cc1)Cc1ccc(C(F)(F)F)o1 [27/121]	< 100 nM	< 100 nM	< 100 nM	–
Cc1nn2ncccc2c1C(=O)N(Cc1ccc(-c2cccc(C(C)(C)C(=O)O)c2)cc1)Cc1ccc(C(F)(F)F)o1 [27/122]	100 to 1000 nM	100 to 1000 nM	1000 to 10000 nM	–
Cc1cc(C(=O)N(Cc2ccc(C(F)(F)F)o2)Cc2ccc(-c3cccc(C(C)(C)C(=O)O)c3)cc2Cl)c2ncccc2n1 [27/123]	< 100 nM	< 100 nM	100 to 1000 nM	–
COc1cnc2cccnc2c1C(=O)N(Cc1ccc(C(F)(F)F)o1)Cc1ccc(-c2cccc(C(C)(C)C(=O)O)c2)cc1Cl [27/124]	< 100 nM	< 100 nM	< 100 nM	–
Cc1nc2cccnc2c(C(=O)N(Cc2ccc(-c3cccc(C(C)(C)C(=O)O)c3)cc2)Cc2nc(C(F)(F)F)cs2)c1C [27/130]	< 100 nM	< 100 nM	100 to 1000 nM	–
Cc1nc2cccnc2c(C(=O)N(Cc2ccc(-c3cccc(C(C)(C)C(=O)O)c3)cc2)Cc2cncc(C(F)(F)F)c2)c1C [27/131]	100 to 1000 nM	100 to 1000 nM	100 to 1000 nM	–
Cc1nc2cccnc2c(CN(Cc2ccc(-c3cccc(C(C)(C)C(=O)O)c3)cc2)Cc2ccc(C(F)(F)F)o2)c1C [27/133]	< 100 nM	< 100 nM	–	C*
Cc1nc2cnccc2c(C(=O)N(Cc2ccc(-c3cccc(C(C)(C)C(=O)O)c3)cc2)Cc2ccc(C(F)(F)F)o2)c1C [27/135]	< 100 nM	< 100 nM	100 to 1000 nM	–
Cc1cc(C)c(CN(Cc2ccc(-c3cccc(S(=O)(=O)CC(=O)NS(C)(=O)=O)c3)cc2)Cc2ccc(C(F)(F)F)o2)c(C)c1 [Example 2]	100 to 1000 nM	1000 to 10000 nM	1000 to 10000 nM	–

The remaining lines, values ahead:

EC50 [1]	EC50 [2]	EC50 [3]	FRETβ [3]	SMILES
< 100 nM	< 100 nM	–	C*	CC(C)(C(=O)O)c1cccc(-c2ccc(CN(Cc3ccc(C(F)(F)F)o3)C(=O)C3C(C)(C)CCC3(C)C)cc2)c1 [27/97]
100 to 1000 nM	100 to 1000 nM	100 to 1000 nM	–	CCOC(=O)c1ccc(CN(Cc2ncc(-c3cccc(C(C)C(=O)O)c3)cc2Cl)C(=O)c2c(C)c(C)nc3ccccc23)o1 (stereo not drawn) [27/98]
1000 to 10000 nM	1000 to 10000 nM	> 10000 nM	–	Cc1nc2ccccc2c(C(=O)N(Cc2ccc(C(=O)N(C)C)o2)Cc2ncc(-c3cccc(C(C)C(=O)O)c3)cc2Cl)c1C (stereo not drawn) [27/100]
< 100 nM	< 100 nM	100 to 1000 nM	–	Cc1nc2cccnc2c(C(=O)N(Cc2ccc(-c3cccc(C(C)C(=O)O)c3)cc2)Cc2ccc(C(F)(F)F)o2)c1C (stereo not drawn) [27/110]
< 100 nM	100 to 1000 nM	1000 to 10000 nM	–	Cc1cc(C(=O)N(Cc2ccc(-c3cccc(C(C)(C)C(=O)O)c3)cc2)Cc2ccc(C(F)(F)F)o2)c2ncccc2n1 [27/111]
< 100 nM	< 100 nM	100 to 1000 nM	–	Cc1ccc2nc(C)cc(C(=O)N(Cc3ccc(-c4cccc(C(C)(C)C(=O)O)c4)cc3)Cc3ccc(C(F)(F)F)o3)c2c1 [27/125]
100 to 1000 nM	< 100 nM	100 to 1000 nM	–	Cc1nc2cccnc2c(C(=O)N(Cc2ccc(-c3cccc(C(C)(C)C(=O)O)c3)cc2)Cc2ccc(C(F)F)o2)c1C [27/126]
100 to 1000 nM	100 to 1000 nM	1000 to 10000 nM	–	Cc1cc(C(=O)N(Cc2ccc(-c3cccc(C(C)(C)C(=O)O)c3)cc2)Cc2ccc(C(F)(F)F)o2)c2ccc(F)cc2n1 [27/127]
< 100 nM	100 to 1000 nM	100 to 1000 nM	–	CC(C)(C(=O)O)c1cccc(-c2ccc(CN(Cc3ccc(C(F)(F)F)o3)C(=O)c3cc(C4CC4)nc4ccccc34)cc2)c1 [27/129]
< 100 nM	100 to 1000 nM	1000 to 10000 nM	–	Cc1ccc(CN(Cc2ccc(-c3cccc(C(C)(C)C(=O)O)c3)cc2)C(=O)c2c(C)c(C)nc3cccnc23)o1 [27/132]
